Earlier results as cited in patent publication US20140309164A1, “DEUTERATED NUCLEOSIDE PRODRUGS USEFUL FOR TREATING HCV” (priority 2013, published 2014).

How the values were obtained:
[1] = pulled from clinical trials
HCV = details: percent of the trial participants; several large clinical trials

## COc1nc(N)nc2c1ncn2[C@@H]1O[C@H](COP(=O)(N[C@@H](C)C(=O)OCC(C)(C)C)Oc2cccc3ccccc23)[C@@H](O)[C@@]1(C)O (some centres unmarked) [BMS-986094]
[1]
  fatal adverse event in clinical trials: death of a patient due to heart failure

## CC(C)OC(=O)[C@H](C)NP(=O)(OC[C@H]1O[C@@H](n2ccc(=O)[nH]c2=O)C(C)(F)C1O)Oc1ccccc1 (some centres unmarked) [Sovaldi, Sofosbuvir]
HCV
  sustained viral response (SVR) of twelve weeks: 50-90%

## CC(C)OC(=O)[C@H](C)NP(=S)(OC[C@H]1O[C@@H](n2ccc(=O)[nH]c2=O)[C@](C)(O)[C@@H]1O)Oc1ccccc1 (some centres unmarked) [VX-135]
HCV genotype 1; 200 mg VX-135 in combination with daclatasvir, treatment-naive genotype 1, 10 of 12
  sustained viral response rate four weeks after the completion of treatment (SVR4), intent-to-treat analysis: 83%
HCV genotype 1; eleven patients who completed 12 weeks of treatment, VX-135 in combination with daclatasvir
  completion of treatment rate (SVR4): 91%
HCV genotype 1; one patient, VX-135 in combination with daclatasvir
  serious adverse event: serious adverse event of vomiting/nausea
